# Laboratory results as given in US12581252B2, “Substituted pyrrolo[3,4-b]pyridines as PI3K-α inhibitors” (Relay Therapeutics, Inc., priority 2020, dated 2026).
# Target: H1047R PIK3CA enzyme (Homo sapiens, UniProt P42336, H1047R)
# Assay: ADP-Glo Biochemical PIK3CA Kinase Assay
# Sequence of H1047R PIK3CA enzyme (P42336 whole entry H1047R): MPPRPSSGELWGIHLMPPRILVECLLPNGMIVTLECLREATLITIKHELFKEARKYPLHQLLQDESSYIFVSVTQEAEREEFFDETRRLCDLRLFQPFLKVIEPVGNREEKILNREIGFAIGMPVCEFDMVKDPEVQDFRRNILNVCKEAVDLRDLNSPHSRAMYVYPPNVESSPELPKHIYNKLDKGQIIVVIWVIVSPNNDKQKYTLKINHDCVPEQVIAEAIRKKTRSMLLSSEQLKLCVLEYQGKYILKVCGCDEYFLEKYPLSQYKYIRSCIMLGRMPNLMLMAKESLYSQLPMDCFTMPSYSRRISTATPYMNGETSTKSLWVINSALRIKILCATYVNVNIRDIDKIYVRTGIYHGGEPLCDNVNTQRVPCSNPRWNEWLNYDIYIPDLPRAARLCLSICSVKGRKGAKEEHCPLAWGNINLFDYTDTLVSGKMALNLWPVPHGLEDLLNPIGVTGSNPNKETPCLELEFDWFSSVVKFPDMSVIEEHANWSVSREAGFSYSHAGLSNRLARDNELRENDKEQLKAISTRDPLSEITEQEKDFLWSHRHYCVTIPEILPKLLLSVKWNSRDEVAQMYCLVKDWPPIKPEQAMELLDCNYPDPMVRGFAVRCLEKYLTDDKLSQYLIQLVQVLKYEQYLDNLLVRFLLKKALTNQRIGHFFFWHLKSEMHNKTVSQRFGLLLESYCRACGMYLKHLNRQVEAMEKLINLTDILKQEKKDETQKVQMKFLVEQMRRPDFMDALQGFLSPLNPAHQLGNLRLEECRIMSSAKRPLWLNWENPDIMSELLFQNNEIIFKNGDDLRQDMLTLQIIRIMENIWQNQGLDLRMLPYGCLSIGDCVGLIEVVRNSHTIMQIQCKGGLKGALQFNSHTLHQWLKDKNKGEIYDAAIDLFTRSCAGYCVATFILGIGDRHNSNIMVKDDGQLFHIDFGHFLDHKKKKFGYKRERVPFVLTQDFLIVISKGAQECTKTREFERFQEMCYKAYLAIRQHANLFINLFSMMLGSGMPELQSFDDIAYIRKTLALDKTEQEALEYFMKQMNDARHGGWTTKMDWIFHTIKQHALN
# Sequence of H1047R PIK3CA enzyme (P27986 whole entry partner): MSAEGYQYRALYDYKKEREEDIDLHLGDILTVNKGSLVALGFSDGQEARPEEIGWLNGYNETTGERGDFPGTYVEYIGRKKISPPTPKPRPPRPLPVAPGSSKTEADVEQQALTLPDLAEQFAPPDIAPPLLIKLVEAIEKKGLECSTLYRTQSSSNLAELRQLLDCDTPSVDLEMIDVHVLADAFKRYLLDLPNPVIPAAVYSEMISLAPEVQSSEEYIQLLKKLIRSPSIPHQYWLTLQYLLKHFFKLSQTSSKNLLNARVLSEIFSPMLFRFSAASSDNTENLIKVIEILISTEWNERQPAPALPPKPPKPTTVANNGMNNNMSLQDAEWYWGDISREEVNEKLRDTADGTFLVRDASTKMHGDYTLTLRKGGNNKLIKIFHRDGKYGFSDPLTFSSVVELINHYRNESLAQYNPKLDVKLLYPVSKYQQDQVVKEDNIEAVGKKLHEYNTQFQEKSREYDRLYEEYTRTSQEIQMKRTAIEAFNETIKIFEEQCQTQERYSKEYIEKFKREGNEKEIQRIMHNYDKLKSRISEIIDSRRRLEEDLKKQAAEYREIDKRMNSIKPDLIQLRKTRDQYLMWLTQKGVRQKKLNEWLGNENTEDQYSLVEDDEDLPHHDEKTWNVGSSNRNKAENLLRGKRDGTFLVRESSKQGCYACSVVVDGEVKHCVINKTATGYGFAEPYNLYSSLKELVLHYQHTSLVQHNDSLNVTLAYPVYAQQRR
row,Structure (SMILES),IC50 [µM]
1,Nc1ncc(-c2cc(NC(=O)c3cc(F)cc(C(F)(F)F)c3)c3c(c2)C(=O)N[C@H]3c2cc(F)ccc2Cl)cn1 (stereo in doubt) [Compound I-1004],1 to 10
2,CC(O)(c1ccncc1)c1cc(NC(=O)c2cc(F)cc(C(F)(F)F)c2)c2c(c1)C(=O)NC2c1cc(F)ccc1Cl (stereo not drawn) [Compound I-1403],≤ 0.1
3,O=C(Nc1cc(-c2ccc3nnnn3c2)cc2c1C(c1cc(F)ccc1Cl)NC2=O)c1cc(F)cc(C(F)(F)F)c1 (stereo not drawn) [Compound I-1374],≤ 0.1
4,CN1CCCC[C@H]1C(=O)Nc1cc(-c2ccc3ncnn3c2)cc2c1[C@H](c1cc(F)ccc1Cl)NC2=O (racemic) [Compound I-1948],10 to 100
5,O=C(Nc1cc(-c2ccnc(C(=O)O)c2)cc2c1C(c1cc(F)ccc1Cl)NC2=O)c1cc(F)cc(C(F)(F)F)c1 (stereo not drawn) [Compound I-2137],≤ 0.1
6,N#Cc1cc(F)cc(C(=O)Nc2cc(Br)cc3c2C(c2cc(F)ccc2Cl)NC3=O)c1 (stereo not drawn) [Compound I-910],1 to 10
7,O=C(Nc1cc(CC(O)C(F)(F)F)cc2c1C(c1cc(F)ccc1Cl)NC2=O)c1cc(F)cc(C(F)(F)F)c1 (stereo not drawn) [Compound I-1200],≤ 0.1
8,"COC(=O)c1cc(NC(=O)c2nsc3ccccc23)c2c(n1)C(=O)NC2c1ccccc1Cl (stereo not drawn) [Compound I-222, Methyl 4-(1,2-benzothiazole-3-amido)-5-(2-chlorophenyl)-7-oxo-5H,6H,7H-pyrrolo[3,4-b]pyridine-2-carboxylate]",0.1 to 0.5
9,O=C(Nc1cncc2c1C(c1cc(F)ccc1Cl)NC2=O)c1cc(F)cc(C(F)(F)F)c1 (stereo not drawn) [Compound I-553],≤ 0.1
10,O=C1NC(c2cc(F)ccc2C(F)F)c2c(NC(=O)c3nsc4ccccc34)cccc21 (stereo not drawn) [Compound I-137],≤ 0.1
11,O=C(Nc1cc(-c2cnn(C(F)F)c2)cc2c1C(c1cc(F)ccc1Cl)NC2=O)c1cc(F)cc(C(F)(F)F)c1 (stereo not drawn) [Compound I-1657],≤ 0.1
12,O=C(Nc1cc(C#Cc2cccnc2)cc2c1C(c1cc(F)ccc1Cl)NC2=O)c1cc(F)cc(C(F)(F)F)c1 (stereo not drawn) [Compound I-1225],≤ 0.1
13,CN1CCN(c2cc(NC(=O)c3cc(F)cc(C(F)(F)F)c3)c3c(c2)C(=O)NC3c2cc(F)ccc2Cl)CC1=O (stereo not drawn) [Compound I-1249],≤ 0.1
14,O=C(Nc1cc(Br)cc2c1C(c1cc(F)ccc1Cl)NC2=O)c1ccc(OC(F)(F)F)cc1 (stereo not drawn) [Compound I-524],1 to 10
15,"N#C[C@H]1C[C@@H](c2cc(NC(=O)c3cc(F)cc(C(F)(F)F)c3)c3c(c2)C(=O)N[C@@H]3c2cc(F)ccc2Cl)C1 (single isomer, unassigned) [Compound I-1327]",≤ 0.1
16,CN1CCCC(C2NC(=O)c3cccc(NC(=O)c4cc(F)cc(C(F)(F)F)c4)c32)C1 (racemic) [Compound I-1769],10 to 100
17,O=C(Nc1cc(Br)cc2c1C(c1cc(F)cc(F)c1)NC2=O)c1cc(F)cc(F)c1 (stereo not drawn) [Compound I-2156],1 to 10
18,"O=C1N[C@H](c2cc(F)ccc2Cl)c2c(NC(=O)N3C[C@](O)(C(F)(F)F)c4cc(F)ccc43)ccc(-n3cccn3)c21 (single isomer, unassigned) [Compound I-2494]",1 to 10
19,Cc1ccccc1C1c2c(NC(=O)c3csc4ccccc34)cccc2C(=O)N1C (stereo not drawn) [Compound I-82],10 to 100
20,Cn1nc(C(F)F)cc1-c1cc(NC(=O)c2cc(F)cc(C(F)(F)F)c2)c2c(c1)C(=O)N[C@@H]2c1cc(F)ccc1Cl [Compound I-1879],1 to 10
21,"CC([C@@H]1C[C@@H](O)CN1C(=O)Nc1cccc2c1C(c1cc(F)ccc1Cl)NC2=O)C(F)(F)F (single isomer, unassigned) [Compound I-2286]",0.5 to 1
22,"O=C1N[C@@H](c2cc(F)ccc2Cl)c2c(NC(=O)N3C[C@@](O)(C(F)F)c4cc(F)ccc43)cc(Cl)cc21 (single isomer, unassigned) [Compound I-2589]",1 to 10
23,O=C(Nc1cc(N2CC(F)C2)nc2c1C(c1cc(F)ccc1Cl)NC2=O)c1cc(F)cc(C(F)(F)F)c1 (stereo not drawn) [Compound I-488],≤ 0.1

row,Structure (SMILES),IC50 [µM]
1,O=C(Nc1cc(NCCO)cc2c1C(c1cc(F)ccc1Cl)NC2=O)c1cc(F)cc(C(F)(F)F)c1 (stereo not drawn) [Compound I-707],≤ 0.1
2,O=C(Nc1cc(Br)cc2c1C(c1cc(F)ccc1Cl)NC2=O)c1cncc(Cl)c1 (stereo not drawn) [Compound I-909],1 to 10
3,Cn1cc(C#Cc2cc(NC(=O)c3cc(F)cc(C(F)(F)F)c3)c3c(c2)C(=O)NC3c2cc(F)ccc2Cl)cn1 (stereo not drawn) [Compound I-1155],≤ 0.1
4,O=C1NC(c2cc(F)ccc2Cl)c2c(NC(=O)C3CCC(O)(C(F)(F)F)CC3)cccc21 (stereo not drawn) [Compound I-2155],10 to 100
5,O=C1Cc2cc(NC(=O)c3cc(F)cc(C(F)(F)F)c3)ccc2C(c2ccccc2Cl)N1 (stereo not drawn) [Compound I-1177],1 to 10
6,Cc1ccccc1C1NC(=O)c2c(-c3cnn(C)c3)ncc(NC(=O)c3cc(F)cc(C(F)(F)F)c3)c21 (stereo not drawn) [Compound I-254],0.1 to 0.5
7,"O=C1N[C@H](c2cc(F)ccc2Cl)c2c(NC(=O)N3C[C@@](O)(C(F)(F)F)c4cc(F)ccc43)ccc(Cl)c21 (single isomer, unassigned) [Compound I-2620]",1 to 10
8,Cc1ccccc1C1NC(=O)c2cccc(NC(=O)c3n[nH]c4ccccc34)c21 (stereo not drawn) [Compound I-24],10 to 100
9,O=C1NC(c2cc(F)ccc2Cl)c2c(NC(=O)[C@H]3C[C@H](O)c4ccccc43)cc(Br)cc21 (mixture of isomers) [Compound I-1943],10 to 100
10,"O=C1N[C@H](c2cc(F)ccc2Cl)c2c(NC(=O)[C@H]3CC[C@@H](O)C3)cc(Br)cc21 (single isomer, unassigned) [Compound I-2103]",10 to 100
11,O=C(Nc1cc(-c2cnc(OC3CC3)nc2)cc2c1C(c1cc(F)ccc1Cl)NC2=O)c1cc(F)cc(C(F)(F)F)c1 (stereo not drawn) [Compound I-1492],≤ 0.1
12,Cc1ccccc1C1NC(=O)c2cccc(NC(=O)c3cnc(OC(C)C)c(F)c3)c21 (stereo not drawn) [Compound I-109],10 to 100
13,Cc1cccnc1C1NC(=O)c2cccc(NC(=O)c3csc4ccccc34)c21 (stereo not drawn) [Compound I-49],1 to 10
14,"CNc1cc(NC(=O)N2C[C@](O)(C(F)(F)F)c3cc(F)ccc32)c2c(c1)C(=O)N[C@H]2c1cc(F)ccc1Cl (single isomer, unassigned) [Compound I-2643]",1 to 10
15,"CNc1cc(NC(=O)N2C[C@](O)(C(F)(F)F)c3cc(F)ccc32)c2c(n1)C(=O)N[C@H]2c1cc(F)ccc1Cl (single isomer, unassigned) [Compound I-2647]",0.1 to 0.5
16,O=C(Nc1cc(Br)cc2c1C(c1cc(F)ccc1Cl)NC2=O)c1ccccc1OC(F)(F)F (stereo not drawn) [Compound I-571],1 to 10
17,O=C(Nc1cccc2c1C(C13CC4CC(CC(C4)C1)C3)NC2=O)c1cc(F)cc(C(F)(F)F)c1 (stereo not drawn) [Compound I-1969],10 to 100
18,"NCCc1cc(NC(=O)N2C[C@H](O)c3cc(F)ccc32)c2c(c1)C(=O)N[C@H]2c1cc(F)ccc1Cl (single isomer, unassigned) [Compound I-2445]",1 to 10
19,COc1ncc(-c2cc(NC(=O)c3cc(F)cc(C(F)(F)F)c3)c3c(c2)C(=O)NC3c2cc(F)ccc2Cl)c(N)n1 (stereo not drawn) [Compound I-1151],0.1 to 0.5
20,Cc1ccccc1C1NC(=O)c2cccc(NC(=O)c3nscc3-c3ccccc3)c21 (stereo not drawn) [Compound I-413],1 to 10
21,CN=S(C)(=O)Cc1cc(NC(=O)c2cc(F)cc(C(F)(F)F)c2)c2c(c1)C(=O)NC2c1cc(F)ccc1Cl (stereo not drawn) [Compound I-1434],≤ 0.1
22,O=C(Nc1cc(Oc2ccccn2)cc2c1C(c1cc(F)ccc1Cl)NC2=O)c1cc(F)cc(C(F)(F)F)c1 (stereo not drawn) [Compound I-1077],0.1 to 0.5
